According to patent US5877013A, “Rhodosporidium D-amino acid oxidase” (Food Industry Research and Development Institute, priority 1997, dated 1999):
Values belong to the molecule of their own block, whether it stands above or below them.

Legend:
R. toruloides DAO [1] = molecular target: T1, R. toruloides DAO (Rhodotorula toruloides, UniProt P80324); assay: activity of purified DAO on amino acid substrates and Ceph C (relative activity, apparent Km); format: biochemical; parameters: made in house; host or cells: R. toruloides cells (native source, not recombinant); conditions: for relative activity of the purified DAO on substrate / activity of the purified DAO on substrate: purified R. toruloides DAO
T1 sequence (P80324 25-368): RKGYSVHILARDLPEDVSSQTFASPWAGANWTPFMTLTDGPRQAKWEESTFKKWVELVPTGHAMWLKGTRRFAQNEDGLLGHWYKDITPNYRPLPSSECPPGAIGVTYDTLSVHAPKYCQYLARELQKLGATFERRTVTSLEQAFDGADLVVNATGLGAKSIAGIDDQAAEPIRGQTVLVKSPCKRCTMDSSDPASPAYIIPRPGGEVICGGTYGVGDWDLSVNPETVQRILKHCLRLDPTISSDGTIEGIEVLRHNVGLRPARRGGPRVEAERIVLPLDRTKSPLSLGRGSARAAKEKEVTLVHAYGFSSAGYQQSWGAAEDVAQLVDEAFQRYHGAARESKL

R. toruloides DAO [2] = molecular target: T1, R. toruloides DAO
R. toruloides DAO [3] = molecular target: T1, R. toruloides DAO; assay: biochemical
[4] = substrate: CSCC[C@@H](N)C(=O)O; assay: purified protein, by the assay type; conditions: other: purified R. toruloides DAO
[5] = substrate: C[C@@H](N)C(=O)O; assay: purified protein, by the assay type; conditions: other: purified R. toruloides DAO
[6] = substrate: N[C@H](CO)C(=O)O; assay: purified protein, by the assay type; format: biochemical; conditions: other: purified R. toruloides DAO
[7] = substrate: N[C@H](Cc1c[nH]c2ccccc12)C(=O)O; assay: purified protein, by the assay type; format: biochemical; conditions: other: purified R. toruloides DAO
[8] = substrate: [H][C@]12SCC(COC(C)=O)=C(C(=O)O)N1C(=O)[C@H]2NC(=O)CCC[C@@H](N)C(=O)O; assay: purified protein, by the assay type; format: biochemical; conditions: other: purified R. toruloides DAO

Molecule: CC(=O)OCC1=C(C(=O)O)N2C(=O)[C@@H](NC(=O)CCC[C@@H](N)C(=O)O)[C@H]2SC1 [Ceph C, cephalosporin C]
activity on Ceph C as compared with activity against D-alanine (R. toruloides DAO [1]; purified DAO, SEQ ID NO: 3): 95%

relative activity of the purified DAO on substrate (R. toruloides DAO [1]): < 20 % of maximal
Molecule: N[C@H](CC(=O)O)C(=O)O [D-aspartic acid]

relative activity of the purified DAO on substrate (R. toruloides DAO [1]): < 20 % of maximal
Molecule: N[C@H](CCC(=O)O)C(=O)O [D-glutamic acid]

Molecule: NCCCC[C@@H](N)C(=O)O [D-lysine]
relative activity of the purified DAO on substrate (R. toruloides DAO [1]): < 20 % of maximal

relative activity of the purified DAO on substrate (R. toruloides DAO [1]): < 20 % of maximal
Molecule: C[C@H](O)[C@@H](N)C(=O)O [D-threonine]

activity of the purified DAO on substrate (R. toruloides DAO [1]): best substrate
Molecule: N[C@H](Cc1c[nH]c2ccccc12)C(=O)O [D-tryptophan]

Molecule: C[C@H](N)C(=O)O [L-alanine]
activity of the purified DAO on substrate (R. toruloides DAO [1]): No activity

Molecule: CSCC[C@H](N)C(=O)O [L-methionine]
activity of the purified DAO on substrate (R. toruloides DAO [1]): No activity

activity of the purified DAO on substrate (R. toruloides DAO [1]): No activity
Molecule: N[C@@H](Cc1ccccc1)C(=O)O [L-phenylalanine]

Molecule: O=C(O)[C@@H]1CCCN1 [L-proline]
activity of the purified DAO on substrate (R. toruloides DAO [1]): No activity

Molecule: O=C(O)c1ccccc1 [benzoic acid]
enzyme inhibited in the presence of aromatic acid (R. toruloides DAO [2]): 49%

Molecule: O=C(O)c1cccnc1 [nicotinic acid]
enzyme inhibited in the presence of aromatic acid (R. toruloides DAO [2]): 21%

enzyme inhibited in the presence of aromatic acid (R. toruloides DAO [2]): 72% | Ki (R. toruloides DAO [3]): 300 µM
Molecule: Nc1ccc(C(=O)O)cc1 [p-aminobenzoic acid]

B1: R. toruloides DAO (Rhodotorula toruloides) (protein)
chain: T1 sequence (P80324 25-368)
notes: made in house; host or cells: R. toruloides cells (native source, not recombinant)
Km [4]: 220 µM | Km [5]: 680 µM | Km [6]: 3400 µM | Km [7]: 180 µM | Km [8]: 650 µM
